Measurements taken from patent US6015941A, “Peptide derivatives of tachyplesin having antimicrobial activity” (Pioneer Hi-Bred International, Inc., priority 1997, dated 2000).
Like-named read-outs stand apart in the source and are kept apart here. Positions of bridges follow the written chain, without caps; N, C: chain ends. Residues, ends and D or L forms follow the SMILES beside them.

Assays:
[1] = test system: maize protoplasts (Black Mexican Sweet)
[2] = test system: Shigella dysenteriae (ATCC 13313); test: Disk diffusion assay, human pathogens; assay type: cell-based
[3] = test system: Candida albicans (ATCC 10231); assay type: cell-based
Fusarium moniliforme = assay type: cell-based
Fusarium graminearum = assay type: cell-based
E. coli = assay type: cell-based
[4] = test system: Staphylococcus aureaus (ATCC 25923); assay type: cell-based, S. aureus
human erythrocytes [5] = settings: red cells of human, 100 μM
Aspergillus flavus = assay type: cell-based
[6] = test system: Pseudomonas aeruginosa (ATCC 21036); assay type: cell-based
[7] = test system: Salmonella typhimurium (ATCC 13311); assay type: cell-based
human erythrocytes [8] = settings: cited from earlier work
[9] = average of two independent measurements, SD 15%
[10] = minimum complete inhibitory concentration, average of two measurements

Row | Compound | lysis of rabbit erythrocytes (rabbit erythrocytes) | F. moniliforme MCIC (Fusarium moniliforme) | F. moniliforme MIC (Fusarium moniliforme) [µM] | F. graminearum MIC (Fusarium graminearum; [9]) [µM] | F. graminearum MCIC (Fusarium graminearum; [10]) [µM] | hemolysis of human erythrocytes (human erythrocytes [5]) | A. flavus MCIC (Aspergillus flavus) | A. flavus MIC (Aspergillus flavus) [µM] | other results
1 | CC[C@H](C)[C@H](NC(=O)CN)C(=O)NCC(=O)N[C@@H](C)C(=O)N[C@H](C(=O)N[C@@H](CC(C)C)C(=O)N[C@@H](CCCCN)C(=O)N[C@H](C(=O)N[C@@H](CC(C)C)C(=O)N[C@H](C(=O)N[C@H](C(=O)NCC(=O)N[C@@H](CC(C)C)C(=O)N1CCC[C@H]1C(=O)N[C@@H](C)C(=O)N[C@@H](CC(C)C)C(=O)N[C@H](C(=O)N[C@@H](CO)C(=O)N[C@@H](Cc1c[nH]c2ccccc12)C(=O)N[C@H](C(=O)N[C@@H](CCCCN)C(=O)N[C@@H](CCCNC(=N)N)C(=O)N[C@@H](CCCCN)C(=O)N[C@@H](CCCNC(=N)N)C(=O)N[C@@H](CCC(N)=O)C(=O)N[C@@H](CCC(N)=O)C(N)=O)[C@@H](C)CC)[C@@H](C)CC)[C@@H](C)O)[C@@H](C)O)C(C)C)C(C)C [Melittin] | complete lysis | – | – | – | – | – | – | – | –
2 | CC[C@H](C)[C@@H]1NC(=O)CNC(=O)[C@H](CCCNC(=N)N)NC(=O)[C@H](Cc2ccc(O)cc2)NC(=O)[C@@H]2CSSC[C@H](NC1=O)C(=O)N[C@@H](Cc1ccc(O)cc1)C(=O)N[C@@H](CCCNC(=N)N)C(=O)N[C@@H](CCCNC(=N)N)C(=O)N[C@H](C(=O)N[C@@H](CCCNC(=N)N)C(=O)O)CSSC[C@H](NC(=O)[C@H](Cc1c[nH]c3ccccc13)NC(=O)[C@@H](N)CCCCN)C(=O)N[C@@H](Cc1ccccc1)C(=O)N[C@@H](CCCNC(=N)N)C(=O)N[C@@H](C(C)C)C(=O)N2 [TP, tachyplesin] (H-KWCFRVCYRGICYRRCR-OH; disulfide 3-16, 7-12) | little or no activity | 21 | 8 | 8 | 17 | about 15% | 34 | 13 | order of toxicity as measured by cell viability [1]: TPF>TP/TPM>TPI/TPL>TPY>TPA/TPV and TPD; S. dysenteria zone size ([2]; 50 μg per disk): 18 mm; S. dysenteria zone size ([2]; 100 μg per disk): 18 mm; C. albicans zone size [3]: 16 mm; E. coli MCIC (E. coli): 3; E. coli MIC (E. coli): 1 µM; S. aureus zone size [4]: 18 mm; P. aeruginosa zone size [6]: 14 mm; S. typhimurium zone size [7]: 18 mm
3 | CC[C@H](C)[C@@H]1NC(=O)CNC(=O)[C@H](CCCNC(=N)N)NC(=O)[C@H](Cc2ccc(O)cc2)NC(=O)[C@@H]2CSSC[C@H](NC1=O)C(=O)N[C@@H](Cc1ccc(O)cc1)C(=O)N[C@@H](CCCNC(=N)N)C(=O)N[C@@H](CCCNC(=N)N)C(=O)N[C@H](C(=O)N[C@@H](CCCNC(=N)N)C(N)=O)CSSC[C@H](NC(=O)[C@H](Cc1c[nH]c3ccccc13)NC(=O)[C@@H](N)CCCCN)C(=O)N[C@@H](Cc1ccccc1)C(=O)N[C@@H](CCCNC(=N)N)C(=O)N[C@@H](C(C)C)C(=O)N2 [amidated-TP] (H-KWCFRVCYRGICYRRCR-NH2; disulfide 3-16, 7-12) | – | – | – | – | – | about 30% | – | – | lysis of human erythrocytes (human erythrocytes [8]): 100%
4 | cecropin B | – | 20 | 3 | 3 | 5 | – | > 20 | > 20 | –
5 | mastoparan [mastoporan] | – | 11 | 3 | – | – | – | > 50 | 24 | F. graminearum MCIC (Fusarium graminearum): 8; F. graminearum MIC (Fusarium graminearum): 5 µM
